Laboratory results taken from patent publication US20250289827A1, “MORPHIC FORMS OF A MUTANT BRAF DEGRADER AND METHODS OF MANUFACTURE THEREOF” (C4 THERAPEUTICS, INC., priority 2022, published 2025).
In brackets after ≈: the same amount, converted by molar mass. Several values for one entry are separate records, joined by “and”; a condition that tells them apart may be missing. Equal values may be shown once. Entries after “also recorded” stand apart in the source; their conditions may differ.

What was measured:
[1] = Stability study for Compound 1 Form B (storage conditions); assay type: physicochemical
[2] = Water sorption and desorption (DVS) of Compound 1 Form B; assay type: physicochemical; conditions: for 1st desorp. Weight % change / 1st sorp. Weight % change / 2nd desorp. Weight % change / 2nd sorp. Weight % change: 25° C.
Description: Water sorption and desorption behavior of Compound 1 Form B was investigated by DVS at 25° C. with a cycle of 40-0-95-0-40% RH, dm/dt 0.002, min. equilibration time 60 min and maximum equilibration time 360 min XRPD was measured after the DVS test to determine form change.

[3] = Bulk stability of Compound 1 Form B (1 week stress); assay type: physicochemical; conditions: for Bulk (XRPD) crystallinity / Bulk (XRPD) form / Color / Purity, Bulk (HPLC): Solid state
Description: Compound 1 Form B was placed at 25° C./92% RH in an open container, at 40° C./75% RH in an open container and at 60RC in a closed container for 1 week. Samples after the stress were characterized by XRPD and HPLC and inspected for color change.

[4] = Solubility data for Compound 1 drug substance; assay type: physicochemical
[5] = tested on: ERK phosphorylation; test: Inhibition of ERK phosphorylation in A375 cells; assay type: cell-based; conditions: Homo sapiens, A-375, 24 hr
[6] = tested on: A375 cells; test: A375 cell growth inhibition; assay type: cell-based; conditions: Homo sapiens, A-375, 96 hr
[7] = Solubility in spray drying solvent system; assay type: physicochemical; conditions: 80:20 dichloromethane:methanol, organic solvent or mixture
Description: The stability of the SDI was supported by XRPD and HPLC purity and assay data. The secondary drying parameters were established to ensure adequate SDI stability during drying and that the ICH limits for residual dichloromethane and methanol can be met. Through a feasibility batch and an engineering batch, an SDI manufacturing process is established.

[8] = 25° C. ± 2° C./60% RH ± 5% RH, 3 M
[9] = 25° C. ± 2° C./60% RH ± 5% RH, 6 M
[10] = 40° C. ± 2° C./75% RH ± 5% RH, 3 M
[11] = 40° C. ± 2° C./75% RH ± 5% RH, 6 M
[12] = 25° C./92% RH, open container, 1 week
[13] = 40° C./75% RH, open container, 1 week
[14] = 60° C., tight container, 1 week

## CCN(C)S(=O)(=O)Nc1ccc(F)c(Oc2ccc3ncn([C@H]4COC5(CCN(C(=O)CC6(O)CCN(c7cc8c(cc7F)c(N7CCC(=O)NC7=O)nn8C)CC6)CC5)C4)c(=O)c3c2)c1C#N [Compound 1 Form B]
[1]; 5 ± 3° C., 6 M
  Appearance: white solid
  Assay by UPLC (% w/w): 97.7% w/w
  Chiral purity by HPLC (% area): 99.9% area
  Purity by UPLC (% area): 99.0% area
  Related Substances, UPLC (% area), Total Impurities: 1.0% area
  Water Content by KF (% w/w): 1.2% w/w
  XRPD: Form B
[1]; 5±3° C., 25° C./60% RH, 40° C./75% RH
  Water content trend: increasing trend
[1]; 6M, 5±3° C., 25° C./60% RH, 40° C./75% RH
  Stability study outcome (appearance, purity, assay, related substance, chiral purity, water content, XRPD): meet the acceptance criteria
[1]; [8]
  Assay by UPLC (% w/w): 97.2% w/w
  Chiral purity by HPLC (% area): 99.9% area
  Purity by UPLC (% area): 98.9 % area
  Related Substances, UPLC (% area), Total Impurities: 1.1% area
  Water Content by KF (% w/w): 0.7% w/w
  XRPD: Form B
[1]; [9]
  Assay by UPLC (% w/w): 97.8% w/w
  Chiral purity by HPLC (% area): 99.9% area
  Purity by UPLC (% area): 99.1 % area
  Related Substances, UPLC (% area), Total Impurities: 0.90% area
  Water Content by KF (% w/w): 0.9% w/w
  XRPD: Form B
[1]; [10]
  Assay by UPLC (% w/w): 92.2% w/w
  Chiral purity by HPLC (% area): 99.9% area
  Purity by UPLC (% area): 92.2% area
  Related Substances, UPLC (% area), Total Impurities: 1.2% area
  Water Content by KF (% w/w): 0.9 % w/w
  XRPD: Form B
[1]; [11]
  Assay by UPLC (% w/w): 92.5% w/w
  Chiral purity by HPLC (% area): 99.9% area
  Purity by UPLC (% area): 92.5% area
  Related Substances, UPLC (% area), Total Impurities: 1.1% area
  Water Content by KF (% w/w): 1.0 % w/w
  XRPD: Form B
[1]; Initial
  Appearance: white solid
  Assay by UPLC (% w/w): 99.4% w/w and 97.3% w/w
  Chiral purity by HPLC (% area): 99.8% area
  Purity by UPLC (% area): 98.9% area and 97.3% area
  Related Substances, UPLC (% area), Total Impurities: 1.1% area
  Water Content by KF (% w/w): 0.4% w/w
  XRPD: Form B
[2]; 0% RH
  1st desorp. Weight % change: 0.0%
  1st sorp. Weight % change: 0.0%
  2nd desorp. Weight % change: 0.0%
  2nd sorp. Weight % change: 0.0%
[2]; 10% RH
  1st desorp. Weight % change: 0.1%
  1st sorp. Weight % change: 0.1%
  2nd desorp. Weight % change: 0.1%
  2nd sorp. Weight % change: 0.1%
[2]; 20% RH
  1st desorp. Weight % change: 0.3%
  1st sorp. Weight % change: 0.2%
  2nd desorp. Weight % change: 0.3%
  2nd sorp. Weight % change: 0.2%
[2]; 30% RH
  1st desorp. Weight % change: 0.4%
  1st sorp. Weight % change: 0.3%
  2nd desorp. Weight % change: 0.4%
  2nd sorp. Weight % change: 0.3%
[2]; 40% RH
  1st desorp. Weight % change: 0.5%
  1st sorp. Weight % change: 0.4%
  2nd desorp. Weight % change: 0.5%
  2nd sorp. Weight % change: 0.4%
[2]; 50% RH
  1st sorp. Weight % change: 0.5%
  2nd desorp. Weight % change: 0.8%
[2]; 60% RH
  1st sorp. Weight % change: 0.6%
  2nd desorp. Weight % change: 0.9%
[2]; 70% RH
  1st sorp. Weight % change: 0.7%
  2nd desorp. Weight % change: 1.0%
[2]; 80% RH
  1st sorp. Weight % change: 0.9%
  2nd desorp. Weight % change: 1.2%
[2]; 90% RH
  1st sorp. Weight % change: 1.2%
  2nd desorp. Weight % change: 1.4%
[2]; 95% RH
  1st sorp. Weight % change: 1.6%
  2nd desorp. Weight % change: 1.6%
[2]; DVS 25° C., 40-0-95-0-40% RH cycle
  Crystallinity change after water sorption and desorption: no changes in crystallinity
[2]; DVS 25° C., at 95% RH
  Water uptake: 1.6%
[3]; [12]
  Bulk (XRPD) crystallinity: No change in crystallinity
  Bulk (XRPD) form: Form B
  Color: No change of color
  Purity, Bulk (HPLC): 99.2%
[3]; [13]
  Bulk (XRPD) crystallinity: No change in crystallinity
  Bulk (XRPD) form: Form B
  Color: No change of color
  Purity, Bulk (HPLC): 99.3%
[3]; [14]
  Bulk (XRPD) crystallinity: No change in crystallinity
  Bulk (XRPD) form: Form B
  Color: No change of color
  Purity, Bulk (HPLC): 99.3%
[3]; photo (visible light, 1.2 million lux-hrs)
  Bulk (XRPD) form: Form B
[3]; one week, 25° C./92% RH open, 40° C./75% RH open, 60° C. tight container
  Bulk stability (purity, crystal form, crystallinity): excellent chemical and physical stability without any changes in purity, crystal form and crystallinity; also recorded: excellent chemical and physical stability without any changes in purity, crystal form and/or crystallinity

## CCN(C)S(=O)(=O)Nc1ccc(F)c(Oc2ccc3ncn([C@H]4COC5(CCN(C(=O)CC6(O)CCN(c7cc8c(cc7F)c(N7CCC(=O)NC7=O)nn8C)CC6)CC5)C4)c(=O)c3c2)c1C#N [Compound 1, (3R)-3-[6-[2-cyano-3-[[ethyl(methyl)sulfamoyl]amino]-6-fluorophenoxy]-4-oxoquinazolin-3-yl]-8-[2-[1-[3-(2,4-dioxo-1,3-diazinan-1-yl)-5-fluoro-1-methylindazol-6-yl]-4-hydroxypiperidin-4-yl]acetyl]-1-oxa-8-azaspiro[4.5]decane]
[4]; FaSSIF, pH 6.48, fassif
  solubility: 5840 µg/mL (≈ 6.1 mM)
[4]; FeSSIF, pH 4.86, fessif
  solubility: 1350 µg/mL (≈ 1.41 mM)
[4]; SGF, pH 1.74, simulated gastric fluid
  solubility: 6580 µg/mL (≈ 6.87 mM)
[4]; aqueous buffer, 50 mM pH 6.8 phosphate buffer solution, pH 6.76
  solubility: 1530 µg/mL (≈ 1.6 mM)
[4]; aqueous buffer, 50 mM pH 7.4 phosphate buffer solution, pH 7.40
  solubility: 8790 µg/mL (≈ 9.18 mM)
[4]; aqueous buffer, 100 mM pH 3.0 citrate buffer solution, pH 3.02
  solubility: 2090 µg/mL (≈ 2.18 mM)
[4]; aqueous buffer, 100 mM pH 4.5 citrate buffer solution, pH 4.53
  solubility: 3160 µg/mL (≈ 3.3 mM)
[4]; aqueous buffer, pH 9.0 NaOH solution, pH 8.55
  solubility: 21600 µg/mL (≈ 22.5 mM)
[4]; pH 8.9, Purified water, pH 8.90
  solubility: 42400 µg/mL (≈ 44.3 mM)
[4]; simulated gastric fluid, pH 1.2 HCl/KCl solution, pH 1.17
  solubility: 23000 µg/mL (≈ 24 mM)
[4]; simulated gastric fluid, pH 2.0 HCl/KCl solution, pH 1.95
  solubility: 4350 µg/mL (≈ 4.54 mM)
[5]
  IC50: 0.011 µM
[6]
  GI50: 0.094 µM
[7]
  solubility: > 100000 µg/mL
